# Assay results reported in ChEMBL document CHEMBL2424528, “Novel tetrahydropyran analogs as dipeptidyl peptidase IV inhibitors: Profile of clinical candidate (2R,3S,5R)-2- (2,5-difluorophenyl)-5-(4,6-dihydropyrrolo [3,4-c]pyrazol-5-(1H)-yl)tetrahydro-2H-pyran-3-amine (23) [corrected]” (Bioorg Med Chem Lett, 2013).
# Calls of active or inactive are those of the source. The rule behind the calls is not given here.
# Assays:
# Dipeptidyl peptidase 8 = Dipeptidyl peptidase 8 (Homo sapiens, UniProt Q6V1X1); assay: Inhibition of human DPP8
# Prolyl endopeptidase FAP = molecular target: T1, Prolyl endopeptidase FAP (Homo sapiens, UniProt Q12884); assay: Inhibition of human FAP
# T1 sequence (Q12884 whole entry): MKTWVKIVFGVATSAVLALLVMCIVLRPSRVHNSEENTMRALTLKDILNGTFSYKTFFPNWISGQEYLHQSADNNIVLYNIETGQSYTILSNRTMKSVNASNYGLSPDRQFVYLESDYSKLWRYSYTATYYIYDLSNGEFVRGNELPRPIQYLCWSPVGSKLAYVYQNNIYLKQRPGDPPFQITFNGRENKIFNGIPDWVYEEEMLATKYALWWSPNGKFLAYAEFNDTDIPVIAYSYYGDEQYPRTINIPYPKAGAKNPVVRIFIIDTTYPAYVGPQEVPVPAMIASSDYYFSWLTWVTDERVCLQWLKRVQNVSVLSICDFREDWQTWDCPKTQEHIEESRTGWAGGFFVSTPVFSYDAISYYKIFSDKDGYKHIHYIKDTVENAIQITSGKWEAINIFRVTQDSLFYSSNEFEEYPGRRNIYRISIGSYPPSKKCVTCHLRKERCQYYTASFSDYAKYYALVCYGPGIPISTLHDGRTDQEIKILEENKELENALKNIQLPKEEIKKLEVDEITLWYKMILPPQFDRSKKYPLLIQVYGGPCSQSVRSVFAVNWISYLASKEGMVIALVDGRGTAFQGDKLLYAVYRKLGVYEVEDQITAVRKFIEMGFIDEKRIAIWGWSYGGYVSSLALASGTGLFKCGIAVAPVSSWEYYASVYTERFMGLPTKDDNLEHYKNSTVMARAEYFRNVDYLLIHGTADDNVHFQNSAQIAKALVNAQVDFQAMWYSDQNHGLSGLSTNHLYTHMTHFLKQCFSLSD
# Dipeptidyl peptidase 2 = Dipeptidyl peptidase 2 (Homo sapiens, UniProt Q9UHL4); assay: Inhibition of QPP (unknown origin)
# [1] = Dissociation constant, pKa of the compound; format: physicochemical
# Canis familiaris [2] = assay: Cardiotoxicity in dog model assessed as QTc prolongation up to 30 mg/kg; format: toxicity, organism-based, Canis lupus familiaris; parameters: dose 30 mg/kg; conditions: in vivo
# Canis familiaris [3] = assay: Cardiotoxicity in cardiovascular dog model assessed as QTc prolongation at 3 mg/kg; format: toxicity, organism-based, Canis lupus familiaris, Heart; parameters: dose 3 mg/kg; conditions: in vivo
# [4] = molecular target: Voltage-gated inwardly rectifying potassium channel KCNH2 (Homo sapiens, UniProt Q12809); assay: Inhibition of human ERG channel
# Mus musculus [5] = assay: Antidiabetic activity in lean mouse assessed as reduction in blood glucose AUC at 3 mg/kg, po administered 1 hr prior to dextrose challenge by oral glucose tolerance test; format: functional; parameters: scale not given: the % may be the effect or the level left
# Mus musculus [6] = assay: Antidiabetic activity in lean mouse assessed as reduction in blood glucose AUC at 0.1 mg/kg, po administered 1 hr prior to dextrose challenge by oral glucose tolerance test; format: functional; parameters: scale not given: the % may be the effect or the level left
# Mus musculus [7] = assay: Antidiabetic activity in DPP-4i-deficient lean mouse assessed as inhibition of blood glucose excursion at 3 mg/kg administered 1 hr prior to dextrose challenge by oral glucose tolerance test relative to control; format: functional, organism-based; parameters: dose 3 mg/kg
# Mus musculus [8] = assay: Antidiabetic activity in wild type lean mouse assessed as inhibition of blood glucose excursion at 3 mg/kg administered 1 hr prior to dextrose challenge by oral glucose tolerance test; format: functional
# Mus musculus [9] = assay: Induction in plasma GLP-1 level in lean mouse at 1 mg/kg; format: functional, organism-based; parameters: dose 1 mg/kg
# Mus musculus [10] = organism: Mus musculus; assay: Induction in plasma GLP-1 level in lean mouse; format: functional, organism-based
# [11] = Plasma concentration in lean mouse at 0.3 mg/kg administered 10 mins prior to dextrose challenge; format: ADME, organism-based; parameters: dose 0.3 mg/kg
# Mus musculus [12] = assay: In vivo inhibition of DPP4 in lean mouse model at 0.3 mg/kg administered 10 mins prior to dextrose challenge; format: functional; parameters: scale not given: the % may be the effect or the level left
# Mus musculus [13] = assay: In vivo inhibition of DPP4 in lean mouse model administered 10 mins prior to dextrose challenge; format: functional, organism-based
# Mus musculus [14] = assay: Antidiabetic activity in orally dosed lean mouse assessed as reduction in blood glucose excursion administered 1 hr prior to dextrose challenge by oral glucose tolerance test; format: functional, organism-based
# Rhesus monkey = assay: Dose normalized AUC in rhesus monkey at 2 mg/kg, po; format: ADME, organism-based, Macaca mulatta; parameters: dose 2 mg/kg, route oral; conditions: in vivo
# Canis familiaris [15] = assay: Dose normalized AUC in beagle dog at 2 mg/kg, po; format: ADME, organism-based, Canis lupus familiaris; parameters: dose 2 mg/kg, route oral; conditions: in vivo
# Rattus norvegicus = assay: Dose normalized AUC in rat at 2 mg/kg, po; format: ADME, organism-based; parameters: dose 2 mg/kg, route oral; conditions: in vivo
# [16] = Oral bioavailability in rhesus monkey at 2 mg/kg; format: ADME, organism-based, Macaca mulatta; conditions: in vivo
# [17] = Oral bioavailability in beagle dog at 2 mg/kg; format: ADME, organism-based, Canis lupus familiaris; conditions: in vivo
# [18] = Oral bioavailability in rat at 2 mg/kg; format: ADME, organism-based; conditions: in vivo
# [19] = Tmax in rhesus monkey at 1 mg/kg, iv and 2 mg/kg, po; format: ADME, organism-based, Macaca mulatta; conditions: in vivo
# [20] = Tmax in beagle dog at 1 mg/kg, iv and 2 mg/kg, po; format: ADME, organism-based, Canis lupus familiaris; conditions: in vivo
# [21] = Tmax in rat at 1 mg/kg, iv and 2 mg/kg, po; format: ADME, organism-based; conditions: in vivo
# [22] = Cmax in rhesus monkey at 2 mg/kg, po; format: ADME, organism-based, Macaca mulatta; parameters: dose 2 mg/kg, route oral; conditions: in vivo
# [23] = Cmax in beagle dog at 2 mg/kg, po; format: ADME, organism-based, Canis lupus familiaris; parameters: dose 2 mg/kg, route oral; conditions: in vivo
# [24] = Cmax in rat at 2 mg/kg, po; format: ADME, organism-based; parameters: dose 2 mg/kg, route oral; conditions: in vivo
# [25] = Terminal half life in rhesus monkey at 1 mg/kg, iv and 2 mg/kg, po; format: ADME, organism-based, Macaca mulatta; conditions: in vivo, read-out: beta t1/2 (converted)
# [26] = Terminal half life in beagle dog at 1 mg/kg, iv and 2 mg/kg, po; format: ADME, organism-based, Canis lupus familiaris; conditions: in vivo, read-out: beta t1/2 (converted)
# [27] = Terminal half life in rat at 1 mg/kg, iv and 2 mg/kg, po; format: ADME, organism-based; conditions: in vivo, read-out: beta t1/2 (converted)
# [28] = Volume of distribution at steady state in beagle dog at 1 mg/kg, iv and 2 mg/kg, po; format: ADME, organism-based, Canis lupus familiaris; conditions: in vivo, read-out: Vdss
# [29] = Volume of distribution at steady state in rhesus monkey at 1 mg/kg, iv and 2 mg/kg, po; format: ADME, organism-based, Macaca mulatta; conditions: in vivo, read-out: Vdss
# [30] = Volume of distribution at steady state in rat at 1 mg/kg, iv and 2 mg/kg, po; format: ADME, organism-based; conditions: in vivo, read-out: Vdss
# [31] = Plasma clearance in rhesus monkey at 1 mg/kg, iv and 2 mg/kg, po; format: ADME, organism-based, Macaca mulatta
# [32] = Plasma clearance in beagle dog at 1 mg/kg, iv and 2 mg/kg, po; format: ADME, organism-based, Canis lupus familiaris
# [33] = Plasma clearance in rat at 1 mg/kg, iv and 2 mg/kg, po; format: ADME, organism-based
# [34] = Inhibition of cytochrome P450 (unknown origin); format: ADME; conditions: human
# [35] = molecular target: Voltage-dependent L-type calcium channel subunit alpha-1C (Homo sapiens, UniProt Q13936); assay: Inhibition of Cav1.2 channel (unknown origin)
# Chain of Voltage-dependent L-type calcium channel subunit alpha-1C (Q13936 whole entry): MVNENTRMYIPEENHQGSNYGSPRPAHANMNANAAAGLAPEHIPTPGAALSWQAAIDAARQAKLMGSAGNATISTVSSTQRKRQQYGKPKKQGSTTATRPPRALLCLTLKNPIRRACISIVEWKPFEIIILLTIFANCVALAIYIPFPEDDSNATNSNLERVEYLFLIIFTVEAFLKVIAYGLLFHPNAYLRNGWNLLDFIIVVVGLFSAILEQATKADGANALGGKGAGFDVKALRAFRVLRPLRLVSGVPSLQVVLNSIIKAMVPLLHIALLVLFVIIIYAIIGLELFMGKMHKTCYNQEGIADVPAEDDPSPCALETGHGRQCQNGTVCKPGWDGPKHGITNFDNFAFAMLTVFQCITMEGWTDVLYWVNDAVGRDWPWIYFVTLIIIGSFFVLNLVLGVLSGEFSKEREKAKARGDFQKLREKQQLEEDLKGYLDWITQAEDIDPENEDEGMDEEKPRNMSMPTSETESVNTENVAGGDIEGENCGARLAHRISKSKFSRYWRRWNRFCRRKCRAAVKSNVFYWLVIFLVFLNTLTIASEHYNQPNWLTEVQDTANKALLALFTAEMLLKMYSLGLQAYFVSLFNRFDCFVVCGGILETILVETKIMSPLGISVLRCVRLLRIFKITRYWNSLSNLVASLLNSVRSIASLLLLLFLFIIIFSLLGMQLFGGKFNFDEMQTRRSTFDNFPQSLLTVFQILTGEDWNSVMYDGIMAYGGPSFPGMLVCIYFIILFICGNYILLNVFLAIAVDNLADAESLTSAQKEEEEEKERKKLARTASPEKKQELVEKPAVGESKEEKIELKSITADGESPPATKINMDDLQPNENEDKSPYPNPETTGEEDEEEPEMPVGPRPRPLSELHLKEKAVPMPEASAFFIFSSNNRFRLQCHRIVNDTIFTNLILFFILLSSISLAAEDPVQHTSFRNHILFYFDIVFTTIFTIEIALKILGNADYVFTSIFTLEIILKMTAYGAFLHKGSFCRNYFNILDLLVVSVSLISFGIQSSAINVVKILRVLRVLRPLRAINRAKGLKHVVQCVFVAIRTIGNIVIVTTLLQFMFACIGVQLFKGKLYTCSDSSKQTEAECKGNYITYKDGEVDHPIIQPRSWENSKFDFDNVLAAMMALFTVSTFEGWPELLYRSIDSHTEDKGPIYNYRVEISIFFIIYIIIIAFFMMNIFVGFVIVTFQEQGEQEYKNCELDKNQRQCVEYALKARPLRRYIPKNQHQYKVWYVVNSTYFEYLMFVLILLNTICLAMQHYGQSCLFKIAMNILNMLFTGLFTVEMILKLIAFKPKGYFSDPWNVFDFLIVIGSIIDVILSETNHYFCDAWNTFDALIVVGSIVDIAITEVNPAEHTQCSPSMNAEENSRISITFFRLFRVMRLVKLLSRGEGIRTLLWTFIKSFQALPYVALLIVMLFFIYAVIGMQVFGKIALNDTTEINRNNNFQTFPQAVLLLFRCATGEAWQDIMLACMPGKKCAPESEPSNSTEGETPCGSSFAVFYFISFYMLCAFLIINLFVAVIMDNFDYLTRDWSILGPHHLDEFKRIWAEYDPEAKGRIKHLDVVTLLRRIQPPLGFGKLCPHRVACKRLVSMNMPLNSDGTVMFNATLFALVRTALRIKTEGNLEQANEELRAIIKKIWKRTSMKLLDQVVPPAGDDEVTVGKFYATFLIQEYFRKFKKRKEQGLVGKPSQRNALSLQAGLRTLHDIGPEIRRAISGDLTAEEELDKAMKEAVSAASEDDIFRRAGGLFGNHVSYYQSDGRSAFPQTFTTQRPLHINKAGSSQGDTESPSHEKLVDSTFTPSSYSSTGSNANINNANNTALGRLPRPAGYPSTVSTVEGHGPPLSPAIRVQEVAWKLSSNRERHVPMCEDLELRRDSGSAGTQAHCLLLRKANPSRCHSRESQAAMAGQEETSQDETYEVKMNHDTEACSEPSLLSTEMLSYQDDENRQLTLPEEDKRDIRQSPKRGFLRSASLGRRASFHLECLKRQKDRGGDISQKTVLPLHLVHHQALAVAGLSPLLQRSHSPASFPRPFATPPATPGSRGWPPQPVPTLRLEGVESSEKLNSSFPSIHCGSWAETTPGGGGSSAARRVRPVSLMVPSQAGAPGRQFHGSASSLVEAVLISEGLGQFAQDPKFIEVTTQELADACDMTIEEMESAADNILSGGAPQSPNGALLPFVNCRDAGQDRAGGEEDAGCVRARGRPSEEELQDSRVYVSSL
# Chain of Voltage-gated inwardly rectifying potassium channel KCNH2 (Q12809 whole entry): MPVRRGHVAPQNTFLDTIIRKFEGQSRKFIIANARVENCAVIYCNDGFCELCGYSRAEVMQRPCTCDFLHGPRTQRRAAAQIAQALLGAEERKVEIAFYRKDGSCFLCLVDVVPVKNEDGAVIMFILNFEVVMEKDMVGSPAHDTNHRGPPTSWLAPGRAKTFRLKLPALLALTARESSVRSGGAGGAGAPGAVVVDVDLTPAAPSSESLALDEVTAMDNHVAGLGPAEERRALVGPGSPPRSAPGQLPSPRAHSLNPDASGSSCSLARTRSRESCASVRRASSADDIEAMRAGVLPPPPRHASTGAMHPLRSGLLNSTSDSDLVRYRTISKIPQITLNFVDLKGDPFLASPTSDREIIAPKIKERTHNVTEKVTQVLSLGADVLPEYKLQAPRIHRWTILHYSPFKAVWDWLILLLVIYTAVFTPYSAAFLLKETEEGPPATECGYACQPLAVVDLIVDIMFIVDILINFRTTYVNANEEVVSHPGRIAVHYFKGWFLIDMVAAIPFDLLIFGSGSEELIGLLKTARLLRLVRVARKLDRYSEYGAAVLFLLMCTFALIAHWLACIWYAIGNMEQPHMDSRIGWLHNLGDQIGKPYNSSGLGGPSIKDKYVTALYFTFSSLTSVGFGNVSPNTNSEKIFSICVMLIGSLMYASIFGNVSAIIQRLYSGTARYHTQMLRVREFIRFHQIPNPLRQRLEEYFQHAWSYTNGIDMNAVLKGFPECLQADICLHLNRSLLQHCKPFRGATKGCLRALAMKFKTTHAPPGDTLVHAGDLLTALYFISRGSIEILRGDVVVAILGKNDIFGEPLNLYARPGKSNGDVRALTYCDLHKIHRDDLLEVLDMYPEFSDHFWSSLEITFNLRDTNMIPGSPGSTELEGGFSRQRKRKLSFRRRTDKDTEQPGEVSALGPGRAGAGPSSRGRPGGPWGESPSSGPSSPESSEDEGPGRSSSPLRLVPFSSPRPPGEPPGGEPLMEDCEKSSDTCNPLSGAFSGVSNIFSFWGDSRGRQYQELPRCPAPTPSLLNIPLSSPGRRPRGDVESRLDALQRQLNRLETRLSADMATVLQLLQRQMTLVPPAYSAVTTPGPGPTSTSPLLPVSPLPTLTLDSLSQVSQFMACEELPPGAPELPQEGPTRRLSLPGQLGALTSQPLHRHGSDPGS
# Chain of Dipeptidyl peptidase 8 (Q6V1X1 whole entry): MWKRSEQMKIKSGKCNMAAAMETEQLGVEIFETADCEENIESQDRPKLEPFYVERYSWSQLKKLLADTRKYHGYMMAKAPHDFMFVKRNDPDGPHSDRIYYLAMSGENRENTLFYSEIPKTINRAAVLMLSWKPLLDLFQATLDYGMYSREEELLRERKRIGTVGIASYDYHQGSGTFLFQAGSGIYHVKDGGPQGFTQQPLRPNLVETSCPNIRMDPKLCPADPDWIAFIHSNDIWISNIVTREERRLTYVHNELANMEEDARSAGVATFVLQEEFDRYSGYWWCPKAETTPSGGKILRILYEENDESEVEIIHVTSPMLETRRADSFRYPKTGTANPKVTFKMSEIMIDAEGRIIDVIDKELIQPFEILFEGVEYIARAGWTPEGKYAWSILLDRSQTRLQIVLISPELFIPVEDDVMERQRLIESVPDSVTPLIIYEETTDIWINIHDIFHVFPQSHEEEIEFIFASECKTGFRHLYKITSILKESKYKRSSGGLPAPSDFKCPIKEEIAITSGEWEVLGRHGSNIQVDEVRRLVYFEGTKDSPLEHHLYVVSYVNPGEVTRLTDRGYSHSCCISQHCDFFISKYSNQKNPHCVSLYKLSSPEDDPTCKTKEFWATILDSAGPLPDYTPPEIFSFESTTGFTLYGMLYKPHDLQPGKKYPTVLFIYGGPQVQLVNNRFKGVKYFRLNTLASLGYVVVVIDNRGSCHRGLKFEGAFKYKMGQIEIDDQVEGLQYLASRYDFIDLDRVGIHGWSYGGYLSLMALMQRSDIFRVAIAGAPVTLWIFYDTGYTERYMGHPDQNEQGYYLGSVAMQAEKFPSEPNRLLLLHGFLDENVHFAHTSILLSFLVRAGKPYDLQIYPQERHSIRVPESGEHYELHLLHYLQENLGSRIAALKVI
smiles,measurement,setting,value
N[C@H]1C[C@@H](N2Cc3cn[nH]c3C2)CO[C@@H]1c1ccccc1Cl,IC50,Dipeptidyl peptidase 8,> 100 µM
same,IC50,Prolyl endopeptidase FAP,> 100 µM
same,IC50,Dipeptidyl peptidase 2,> 100 µM
N[C@H]1C[C@@H](N2Cc3cnc(C(F)(F)F)nc3C2)CO[C@@H]1c1cc(F)c(F)cc1F,pKa,[1],7.3
same,Activity,Canis familiaris [2],Non-toxic
N[C@H]1C[C@@H](N2Cc3cn[nH]c3C2)CO[C@@H]1c1ccc(F)cc1F,IC50,Dipeptidyl peptidase 8,> 100 µM
same,IC50,Prolyl endopeptidase FAP,> 100 µM
N[C@H]1C[C@@H](N2Cc3cnc(C(F)(F)F)nc3C2)CC[C@@H]1c1cc(F)c(F)cc1F,pKa,[1],8.6
same,Activity,Canis familiaris [3],> 5%
same,IC50,[4],4.8 µM
CC1(C)c2nc(C3CC3)ncc2CN1[C@H]1CO[C@H](c2cc(F)ccc2F)[C@@H](N)C1,IC50,Dipeptidyl peptidase 8,> 100 µM
N[C@H]1C[C@@H](N2CCn3c(nnc3C(F)(F)F)C2)CO[C@@H]1c1cc(F)ccc1F,IC50,Dipeptidyl peptidase 8,> 100 µM
same,IC50,Prolyl endopeptidase FAP,> 100 µM
same,IC50,Dipeptidyl peptidase 2,> 100 µM
N[C@H]1C[C@@H](N2Cc3nc(C(F)(F)F)[nH]c3C2)CO[C@@H]1c1cc(F)ccc1F,IC50,Prolyl endopeptidase FAP,> 100 µM
same,IC50,Dipeptidyl peptidase 2,> 100 µM
N[C@H]1C[C@@H](N2Cc3cn[nH]c3C2)CO[C@@H]1c1cc(F)c(F)cc1F,IC50,Dipeptidyl peptidase 8,> 100 µM
same,IC50,Prolyl endopeptidase FAP,> 6.4 µM
CC1(C)c2cnc(C3CC3)nc2CN1[C@H]1CO[C@H](c2cc(F)ccc2F)[C@@H](N)C1,IC50,Dipeptidyl peptidase 8,> 100 µM
same,IC50,Prolyl endopeptidase FAP,> 100 µM
N[C@H]1C[C@@H](N2Cc3cn[nH]c3C2)CO[C@@H]1c1cc(F)c(Cl)cc1F,IC50,Dipeptidyl peptidase 8,> 100 µM
same,IC50,Prolyl endopeptidase FAP,> 100 µM
N[C@H]1C[C@@H](N2Cc3cn[nH]c3C2)CO[C@@H]1c1cc(F)ccc1F,Activity,Mus musculus [5],47%
same,Activity,Mus musculus [6],27%
same,inhibition,Mus musculus [7],inactive
same,inhibition in vivo at 3 mg/kg,Mus musculus [8],53%
same,Activity,Mus musculus [9],Active
same,Activity,Mus musculus [10],Dose-dependent effect
same,concentration at 10 min,[11],260 nM
same,Activity,Mus musculus [12],>80%
same,Activity,Mus musculus [13],Dose-dependent effect
same,Activity,Mus musculus [14],Dose-dependent effect
same,AUC/dose,Rhesus monkey,7.33 µM·h/mg/kg
same,AUC/dose,Canis familiaris [15],16.1 µM·h/mg/kg
same,AUC/dose,Rattus norvegicus,3.72 µM·h/mg/kg
same,bioavailability,[16],72%
same,bioavailability,[17],83%
same,bioavailability,[18],70%
same,Tmax,[19],1.1 h
same,Tmax,[20],3.5 h
same,Tmax,[21],0.5 h
same,Cmax,[22],1480 nM
same,Cmax,[23],1920 nM
same,Cmax,[24],800 nM
same,half-life,[25],9.7 h
same,half-life,[26],13 h
same,half-life,[27],6.3 h
same,Vd,[28],3 L/kg
same,Vd,[29],4.2 L/kg
same,Vd,[30],4.9 L/kg
same,clearance,[31],5.2 mL/min/kg
same,clearance,[32],2.7 mL/min/kg
same,clearance,[33],9.7 mL/min/kg
same,inhibition (INH),[34],Not Active
same,inhibition (INH),[35],Not Active
same,inhibition (INH),[4]; human,Not Active
N[C@H]1C[C@@H](N2Cc3cn[nH]c3C2)CO[C@@H]1c1cc(F)ccc1Cl,IC50,Prolyl endopeptidase FAP,> 100 µM
same,IC50,Dipeptidyl peptidase 2,> 100 µM
N[C@H]1C[C@@H](N2Cc3cnc(C4CC4)nc3C2)CO[C@@H]1c1cc(F)c(F)cc1F,Activity,Canis familiaris [2],Non-toxic
same,IC50,[4],> 30 µM
N[C@@H](CC(=O)N1CCn2c(nnc2C(F)(F)F)C1)Cc1cc(F)c(F)cc1F,Activity,Mus musculus [14],Active
N[C@H]1C[C@@H](N2Cc3ccccc3C2=O)CO[C@@H]1c1cc(F)ccc1F,IC50,Dipeptidyl peptidase 8,> 100 µM
same,IC50,Prolyl endopeptidase FAP,> 100 µM
same,IC50,Dipeptidyl peptidase 2,> 100 µM
N[C@H]1C[C@@H](N2Cc3ccccc3O2)CO[C@@H]1c1cc(F)ccc1F,IC50,Prolyl endopeptidase FAP,> 100 µM
Cc1nc2c(o1)CN([C@H]1CO[C@H](c3cc(F)ccc3F)[C@@H](N)C1)C2,IC50,Dipeptidyl peptidase 8,> 100 µM
same,IC50,Prolyl endopeptidase FAP,> 100 µM
same,IC50,Dipeptidyl peptidase 2,> 100 µM
